Each structure is given as a SMILES string.

Experiment [1] relates to Schistosoma mansoni. The experiment in a line: Antischistosomal activity against Schistosoma mansoni infected in MF1 swiss albino mouse assessed as worm burden reduction at 200 mg/kg, po measured after 2 weeks by stereomicroscopy relative to control. It is filed as functional. Details: scale not given: the % may be the effect or the level left.
Experiment [2] concerns Schistosoma mansoni. Description: Antischistosomal activity against Schistosoma mansoni Egyptian assessed as reduction in motor activity at 50 to 200 ug/ml incubated upto 72 hrs by stereomicroscopy. The class given is functional. Details: scale not given: the % may be the effect or the level left. The conditions noted are these: dose 50-200 µg/ml; time hrs <=72; at 50 to 200 µg/mL.

In experiment [3] the test system is Schistosoma mansoni. Description: Antischistosomal activity against Schistosoma mansoni Egyptian assessed as tegument damage at 50 to 200 ug/ml incubated upto 72 hrs by inverted microscopy. The conditions noted are these: dose 50-200 µg/ml; time hrs <=72; at 50 to 200 µg/mL. It is filed as functional.
Experiment [4] relates to Schistosoma mansoni. The experiment in a line: Antischistosomal activity against Schistosoma mansoni Egyptian assessed as reduction in egg production at 50 to 200 ug/ml incubated upto 72 hrs by microscopic method relative to control. It is filed as functional. Also noted: scale not given: the % may be the effect or the level left. The settings on record: dose 50-200 µg/ml; time hrs <=72; at 50 to 200 µg/mL.

For experiment [5], the system named is Schistosoma mansoni. Description: Antischistosomal activity against Schistosoma mansoni Egyptian assessed as worm death at 50 to 200 ug/ml incubated upto 72 hrs by stereomicroscopy. The conditions noted are these: dose 50-200 µg/ml; time hrs <=72; at 50 to 200 µg/mL. It is filed as functional.
In experiment [6] the test system is Schistosoma mansoni. Description: Antischistosomal activity against adult Schistosoma mansoni Puerto-Rican incubated for 7 days by stereomicroscopy. It is filed as functional. The settings on record: time 7 day.
For experiment [7], the system named is Schistosoma mansoni. The experiment in a line: Antischistosomal activity against Schistosoma mansoni schistosomula incubated for 24 hrs by celltiter-glo reagent based assay. It is filed as functional, organism-based.
The subject of another experiment is Schistosoma japonicum. Description: Antischistosomal activity against Schistosoma japonicum assessed as worm death at 10 uM incubated for 120 hrs relative to control. The class given is functional.
In experiment [8] the test system is Schistosoma haematobium. The experiment in a line: Antischistosomal activity against Schistosoma haematobium assessed as worm death at 10 uM incubated for 120 hrs relative to control. It is filed as functional.
Experiment [9] has as its system Schistosoma mansoni. The experiment in a line: Antischistosomal activity against Schistosoma mansoni Schistosomula assessed as worm death at 10 uM incubated for 24 hrs relative to control. The class given is functional.
Experiment [10] has as its target T1, Thioredoxin glutathione reductase (Schistosoma mansoni, UniProt Q962Y6).
T1 sequence (Q962Y6 whole entry): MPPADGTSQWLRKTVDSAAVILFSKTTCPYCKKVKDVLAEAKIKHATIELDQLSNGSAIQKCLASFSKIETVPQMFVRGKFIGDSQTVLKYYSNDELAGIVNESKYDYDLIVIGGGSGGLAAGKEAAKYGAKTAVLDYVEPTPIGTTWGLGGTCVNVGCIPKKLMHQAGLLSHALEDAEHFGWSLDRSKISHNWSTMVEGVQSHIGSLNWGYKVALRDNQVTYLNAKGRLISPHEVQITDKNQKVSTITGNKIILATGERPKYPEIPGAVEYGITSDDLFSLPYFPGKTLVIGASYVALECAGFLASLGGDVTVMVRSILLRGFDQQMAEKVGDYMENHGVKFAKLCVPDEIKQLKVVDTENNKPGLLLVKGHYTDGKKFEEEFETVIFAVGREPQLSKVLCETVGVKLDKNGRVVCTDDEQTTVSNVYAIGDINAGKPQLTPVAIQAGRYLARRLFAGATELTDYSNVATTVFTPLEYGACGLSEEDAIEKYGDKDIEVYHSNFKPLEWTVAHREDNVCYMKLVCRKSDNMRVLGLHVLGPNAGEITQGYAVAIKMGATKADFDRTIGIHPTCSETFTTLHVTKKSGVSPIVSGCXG
Description: Inhibition of Schistosoma mansoni thioredoxin glutathione reductase incubated for 30 mins by DTNB assay.

The test system of experiment [11] is Schistosoma mansoni. The experiment in a line: Antischistosomal activity against juvenile Schistosoma mansoni assessed as worm death at 10 uM incubated for 24 hrs relative to control. It is filed as functional.
Experiment [12] has as its system Schistosoma mansoni. The experiment in a line: Antischistosomal activity against adult Schistosoma mansoni assessed as worm death at 10 uM incubated for 120 hrs relative to control. The class given is functional.
Experiment [13] relates to Schistosoma mansoni. Description: Antischistosomal activity against Schistosoma mansoni Liberian assessed as reduction in worm motor activity incubated for 72 hrs measured every 24 hrs by microscopic method relative to control. It is filed as functional, organism-based.
Experiment [14] relates to Schistosoma mansoni. Description: Antischistosomal activity against Schistosoma mansoni Liberian assessed as reduction in egg production incubated for 72 hrs measured every 24 hrs. The class given is functional, organism-based.
Experiment [15] concerns Schistosoma mansoni. The experiment in a line: Antischistosomal activity against Schistosoma mansoni Liberian assessed as worm death at 20 uM incubated for 72 hrs measured every 24 hrs by microscopic method relative to control. It is filed as functional.
Experiment [16] is described as follows: Inhibition of C-terminal His6-tagged Schistosoma mansoni NACE expressed in Pichia pastoris using 1-N6-ethenonicotinamide adenine dinucleotide as substrate by fluorometric assay.
Experiment [17] in a line: Inhibition of NACE in Schistosoma mansoni using 1-N6-ethenonicotinamide adenine dinucleotide as substrate incubated for 30 mins by fluorometric assay.
The subject of experiment [18] is Schistosoma mansoni. The experiment in a line: Antischistosomal activity against Schistosoma mansoni by confocal laser scanning microscopy. The class given is functional, organism-based.
In experiment [19] the test system is Schistosoma mansoni. Description: Antischistosomal activity against Schistosoma mansoni BH assessed as reduction in motor activity at 12.5 to 100 uM measured up to 72 hrs by light microscopic method relative to control. Also noted: scale not given: the % may be the effect or the level left. The settings on record: dose 12.5-100 µM, time hrs <=72. The class given is functional.

For experiment [20], the system named is Schistosoma mansoni. The experiment in a line: Antischistosomal activity against Schistosoma mansoni BH assessed as tegument damage at 12.5 to 100 uM measured up to 72 hrs by confocal laser scanning microscopic method relative to control. It is filed as functional. The settings on record: dose 12.5-100 µM, time hrs <=72.
In experiment [21] the test system is Schistosoma mansoni. The experiment in a line: Antischistosomal activity against Schistosoma mansoni BH infected in Balb/C mouse assessed as reduction in worm burden at 100 mg/kg, po measured after 2 weeks by Kato-Katz quantitative method. Also noted: Activity: scale not given: the % may be the effect or the level left. The class given is functional.
Experiment [22] concerns Schistosoma mansoni. The experiment in a line: Antischistosomal activity against Schistosoma mansoni BH assessed as worm death at 12.5 to 100 uM measured up to 72 hrs by light microscopic method relative to control. The class given is functional. The conditions noted are these: dose 12.5-100 µM, time hrs <=72.
The test system of experiment [23] is Schistosoma haematobium. The experiment in a line: Antischistosomal activity against Schistosoma haematobium assessed as worm death at 10 uM incubated for 96 hrs relative to control. The class given is functional.
Experiment [24] concerns Schistosoma mansoni. The experiment in a line: Antischistosomal activity against Schistosoma mansoni assessed as worm death at 10 uM incubated for 48 hrs relative to control. The class given is functional.
Experiment [25] has as its system Schistosoma mansoni. Description: Antischistosomal activity against Schistosoma mansoni assessed as worm death at 10 uM incubated for 72 hrs relative to control. It is filed as functional.

A word on the mortality: it is the percentage killed. As to `O=S(=O)(c1ccc(O)c2ncccc12)C1C(c2ccccc2)=Nc2ccncc2N=C1c1ccccc1` (centres undefined), the Activity with Schistosoma mansoni [1] is 81.2%; with Schistosoma mansoni [2], 100%; in the experiment on Schistosoma mansoni [3], 20%; with Schistosoma mansoni [4] it was 54%. Besides, in the experiment on Schistosoma mansoni [5], the mortality is 100%.

The term IC50 denotes the concentration at which inhibition is half-maximal. For `COC1=C(Cc2ccc(OC)cc2)C(=O)C2=C(NCCS2(=O)=O)C1=O`, the Activity in the experiment with Schistosoma mansoni [6] is listed as 100%. The compound also displayed an IC50 with Schistosoma mansoni [7] of 13.9 µM.

With `CCN(c1ccccc1)S(=O)(=O)c1ccc(NC(=O)c2nc(S(C)(=O)=O)ncc2Cl)cc1`, the mortality at 10 µM worked out at 50% in the experiment with Schistosoma japonicum (Schistosoma japonicum); 94% with Schistosoma haematobium [8]; 100% in the experiment on Schistosoma mansoni [9]; 100% with Schistosoma mansoni [11]; 78% in the experiment with Schistosoma mansoni [12]. For the same compound, the IC50 in experiment [10] amounted to 0.21 µM.

What is called EC50 is the midpoint of the concentration-response curve. Turning to `C[C@@H](N)CCCCCC/C=C\CCCCCCCCN`, the concentration for a half-maximal effect (EC50) in the experiment on Schistosoma mansoni [13] was 8.8 µM; in the experiment on Schistosoma mansoni [14], 3.6 µM. In the experiment on Schistosoma mansoni [15], the mortality at 20 µM came out at 100%.

On to `O=C(Nc1nc(=O)c2ccccc2s1)c1ccco1`, for which the half-maximal inhibitory concentration (IC50) came to 2.2 µM in [16] and 20 µM in experiment [17].

In the case of `COc1cc(/C=N/NC(=O)c2ccc(C(C)(C)C)cc2)ccc1O`, 47.9 µM corresponded to half-maximal inhibition in the experiment with Schistosoma mansoni [18] (IC50).

On to `C=C1C(=O)O[C@@H]2C3O[C@]3(C)CC/C=C(\C)CC[C@@H]12` (some centres undefined), for which the Activity with Schistosoma mansoni [19] worked out at 100%; with Schistosoma mansoni [20], 100%; in the experiment with Schistosoma mansoni [21] it was 64.1%. The mortality in the experiment on Schistosoma mansoni [22] is on record as 100%.

As to `O=c1c(Cl)c(-n2cc(CO)nn2)cnn1-c1ccccc1`, the Activity in the experiment on Schistosoma japonicum amounted to 70%; in the experiment on Schistosoma haematobium [23] it was 100%; in the experiment with Schistosoma mansoni [24], 100%; in the experiment with Schistosoma mansoni [25], 100%. In addition, the mortality at 10 µM with Schistosoma mansoni [9] was 100%. For the same compound, in experiment [10], the 50% inhibitory concentration (IC50) stood at 2.84 µM.

For the origin of these results see ChEMBL document CHEMBL4811216, “Chemotherapy for human schistosomiasis: how far have we come? What's new? Where do we go from here?” (RSC Med Chem, 2020).
